According to patent publication US20200216416A1, “QUINOLINE COMPOUNDS AS INHIBITORS OF TAM AND MET KINASES” (Array BioPharma Inc., priority 2019, published 2020):

Key:
[1] = biological target: T1, GST-tagged recombinant human TYRO3 kinase domain (Homo sapiens, UniProt Q06418); assay: TYRO3 Enzyme Assay (LanthaScreen Eu Kinase Binding); settings: averaged IC50; TYRO3 5 nM; 60-minute incubation at 22° C.; TR-FRET
T1 construct: GST-tagged recombinant human TYRO3 kinase domain; purchased Carna PR7480A
T1 sequence (Q06418 518-790 limits assumed): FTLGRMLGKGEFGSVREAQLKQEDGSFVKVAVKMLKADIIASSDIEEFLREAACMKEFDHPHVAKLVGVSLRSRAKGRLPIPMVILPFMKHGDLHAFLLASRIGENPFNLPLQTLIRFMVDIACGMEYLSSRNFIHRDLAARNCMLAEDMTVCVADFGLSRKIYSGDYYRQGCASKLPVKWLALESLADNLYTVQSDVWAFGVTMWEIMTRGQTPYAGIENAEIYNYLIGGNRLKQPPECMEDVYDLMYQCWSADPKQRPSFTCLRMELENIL
Description: Compounds disclosed herein were screened for their ability to inhibit TYRO3 kinase using Invitrogen's LanthaScreenTM Eu Kinase Binding technology. GST-tagged recombinant human TYRO3 kinase domain from Carna (5 nM; Cat. No. P[…]) was incubated with 20 nM Alexa-Fluor® Tracer 236 (P[…]) and 2 nM Europium-anti-GST (Cat. No. A15116) along with test compound in a buffer consisting of 25 mM HEPES, pH 7.4, 10 mM MgCl2, 0.01% Triton X-100, and 2% DMSO. Compounds are typically prepared in a threefold serial dilution in DMSO and added to the assay to give the appropriate final concentration. After a 60-minute incubation at 22° C., the reaction was measured using a PerkinElmer EnVision multimode plate reader via TR-FRET dual wavelength detection, and the percent of control (POC) calculated using a ratiometric emission factor. […] The POC values were fit to a 4 parameter logistic curve and the IC50 value is point where the curve crosses 50 POC.

[2] = biological target: T2, MET (wt) GST-tagged recombinant human MET kinase domain (Homo sapiens, UniProt P08581); assay: c-Met Enzyme Assay, wild type (LanthaScreen Eu Kinase Binding); settings: averaged IC50; MET (wt) 10 nM; 60-minute incubation at 22° C.; read-out: SigChem WT IC50
T2 construct: GST-tagged recombinant human MET kinase domain; purchased Signal Chem
Description: (§1) The affinity of compound binding to wild type and mutant human MET kinases was measured using Invitrogen's LanthaScreen™ Eu Kinase Binding technology. Briefly, GST-tagged recombinant human MET kinase domain from Signal Chem (see Table 8 below for concentration in assay) was incubated with 50 nM Alexa-Fluor® Tracer 236 (Invitrogen Cat No. PR9078A) and 2 nM Europium-anti-GST (Invitrogen Cat. No. A15116) along with test compound in a buffer consisting of 25 mM HEPES, pH 7.4, 10 mM MgCl2, 0.01% Triton X-100, 1mM DTT, and 2% DMSO. Compounds were typically prepared in a three-fold serial dilution in DMSO and added to the assay to give the appropriate final concentration. After a 60-minute incubation at 22° C., the reaction was measured using a PerkinElmer EnVision multimode plate reader via TR-FRET dual wavelength detection, and the percent of control (POC) calculated using a ratiometric emission factor. […] The POC values were fit to a 4 parameter logistic curve and the IC50 value is point where the curve crosses 50 POC.

[3] = biological target: T3, human MET kinase F1200I (Homo sapiens, UniProt P08581, F1200I); assay: c-Met Enzyme Assay, F1200I mutant; assay type: binding; settings: averaged IC50; F1200I 2 nM; 60-minute incubation at 22° C.
T3 construct: GST-tagged recombinant human MET kinase domain; purchased Signal Chem
Description: as §1

[4] = biological target: T4, human MET kinase del Ex14 (Homo sapiens, UniProt P08581, DEL963-1009); assay: c-Met Enzyme Assay, del Ex14 mutant; assay type: binding; settings: averaged IC50; del Ex14 5 nM; 60-minute incubation at 22° C.; read-out: Del14 IC50
T4 construct: GST-tagged recombinant human MET kinase domain; purchased Signal Chem
Description: as §1

[5] = biological target: T5, human MET kinase L1195V (Homo sapiens, UniProt P08581, L1195V); assay: c-Met Enzyme Assay, L1195V mutant; assay type: binding; settings: averaged IC50; L1195V 10 nM; 60-minute incubation at 22° C.
T5 construct: GST-tagged recombinant human MET kinase domain; purchased Signal Chem
Description: as §1

T3 sequence (P08581 1078-1345 F1200I limits assumed): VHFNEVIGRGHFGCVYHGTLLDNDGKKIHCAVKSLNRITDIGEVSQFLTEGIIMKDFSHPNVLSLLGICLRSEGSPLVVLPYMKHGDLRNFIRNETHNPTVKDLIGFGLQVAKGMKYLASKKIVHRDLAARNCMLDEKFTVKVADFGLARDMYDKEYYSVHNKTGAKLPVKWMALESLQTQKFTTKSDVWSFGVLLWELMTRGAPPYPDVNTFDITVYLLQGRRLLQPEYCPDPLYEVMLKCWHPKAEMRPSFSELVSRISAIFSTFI
T2 sequence (P08581 1078-1345 limits assumed): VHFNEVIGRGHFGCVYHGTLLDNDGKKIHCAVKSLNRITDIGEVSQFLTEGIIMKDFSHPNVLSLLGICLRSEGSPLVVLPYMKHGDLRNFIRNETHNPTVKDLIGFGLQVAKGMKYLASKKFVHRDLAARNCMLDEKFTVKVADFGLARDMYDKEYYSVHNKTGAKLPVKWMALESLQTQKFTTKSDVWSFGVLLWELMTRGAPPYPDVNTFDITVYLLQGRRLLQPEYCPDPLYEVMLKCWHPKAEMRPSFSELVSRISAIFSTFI
T4 sequence (P08581 with tags, fused parts or gaps DEL963-1009 limits assumed): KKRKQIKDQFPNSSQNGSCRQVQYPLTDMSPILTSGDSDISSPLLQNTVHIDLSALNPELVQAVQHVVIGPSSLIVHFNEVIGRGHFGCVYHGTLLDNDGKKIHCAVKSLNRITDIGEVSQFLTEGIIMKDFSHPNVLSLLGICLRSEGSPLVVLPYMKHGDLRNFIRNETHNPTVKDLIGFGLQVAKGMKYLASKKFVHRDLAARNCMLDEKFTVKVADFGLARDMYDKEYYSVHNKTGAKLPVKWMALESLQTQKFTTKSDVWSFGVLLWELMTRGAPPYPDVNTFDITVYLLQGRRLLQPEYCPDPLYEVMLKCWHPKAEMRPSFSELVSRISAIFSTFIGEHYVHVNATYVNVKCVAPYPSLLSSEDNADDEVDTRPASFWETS
T5 sequence (P08581 1078-1345 L1195V limits assumed): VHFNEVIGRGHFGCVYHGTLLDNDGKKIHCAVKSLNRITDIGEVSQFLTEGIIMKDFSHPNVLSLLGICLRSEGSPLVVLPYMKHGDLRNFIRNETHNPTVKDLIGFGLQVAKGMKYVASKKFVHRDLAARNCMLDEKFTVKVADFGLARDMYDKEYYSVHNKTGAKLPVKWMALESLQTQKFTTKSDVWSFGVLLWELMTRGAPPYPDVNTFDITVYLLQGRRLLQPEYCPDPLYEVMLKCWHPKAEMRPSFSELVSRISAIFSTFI

IC50 [1]	IC50 [2]	IC50 [3]	IC50 [4]	IC50 [5]	Compound
> 1000 nM	3070 nM	3690 nM	–	–	COc1cc2nc(C)cc(Oc3ccc(NC(=O)c4cn(C(C)C)cc(-c5ccc(F)cc5)c4=O)nc3)c2cc1OC [Example 53, N-(5-((6,7-dimethoxy-2-methylquinolin-4-yl)oxy)pyridin-2-yl)-5-(4-fluorophenyl)-1-isopropyl-4-oxo-1,4-dihydropyridine-3-carboxamide]
4 nM	2.7 nM	4.3 nM	3.2 nM	21.4 nM	COc1cc2nccc(Oc3ccc(NC(=O)c4cn(C(C)C)cc(-c5ccc(F)cc5Cl)c4=O)nc3)c2cc1OC [Example 18, 5-(2-chloro-4-fluorophenyl)-N-(5-((6,7-dimethoxyquinolin-4-yl)oxy)pyridin-2-yl)-1-isopropyl-4-oxo-1,4-dihydropyridine-3-carboxamide]
6 nM	4.3 nM	3.2 nM	2.5 nM	5.1 nM	CCc1c(-c2ccc(F)cc2)c(=O)c(C(=O)Nc2ccc(Oc3ccnc4cc(OC)c(OC)cc34)cn2)cn1C(C)C [Example 29, N-(5-((6,7-dimethoxyquinolin-4yl)oxy)pyridin-2-yl)-6-ethyl-5-(4-fluorophenyl)-1-isopropyl-4-oxo-1,4-dihydropyridine-3-carboxamide]
58 nM	27 nM	27.8 nM	22 nM	459 nM	COc1cc2c(Oc3ccc(NC(=O)c4cn(C(C)C)cc(-c5ccc(F)cc5)c4=O)nc3)ccnc2cc1F [Example 49, N-(5-((7-fluoro-6-methoxyquinolin-4yl)oxy)pyridin-2-yl)-5-(4-fluorophenyl)-1-isopropyl-4-oxo-1,4-dihydropyridine-3-carboxamide]
30 nM	13.8 nM	11.5 nM	14 nM	34.3 nM	COc1cc2nccc(Oc3ccc(NC(=O)c4cn(CCC(C)C)cc(-c5ccc(F)c(F)c5)c4=O)nc3)c2cc1OC [Example 35, 5-(3,4-difluorophenyl)-N-(5-((6,7-dimethoxyquinolin-4yl)oxy)pyridin-2-yl)-1-isopentyl-4-oxo-1,4-dihydropyridine-3-carboxamide]
3 nM	1.8 nM	1.6 nM	1.1 nM	2.9 nM	COc1cc2nccc(Oc3ccc(NC(=O)c4cn(C(C)C)c(C)c(-c5ccc(F)cc5)c4=O)nc3)c2cc1OC [Example 27, N-(5-((6,7-dimethoxyquinolin-4yl)oxy)pyridin-2-yl)-5-(4-fluorophenyl)-1-isopropyl-6-methyl-4-oxo-1,4-dihydropyridine-3-carboxamide]
56 nM	10.2 nM	8.5 nM	14.3 nM	414 nM	COc1ccc2nccc(Oc3ccc(NC(=O)c4cn(CCN(C)C)cc(-c5ccc(F)cc5)c4=O)nc3)c2c1 [Example 47]
112 nM	22.2 nM	35 nM	29.4 nM	495 nM	CCOc1ccc2nccc(Oc3ccc(NC(=O)c4cn(C(C)C)cc(-c5ccc(F)cc5)c4=O)nc3)c2c1 [Example 51, N-(5-((6-ethoxyquinolin-4-yl)oxy)pyridin-2-yl)-5-(4-fluorophenyl)-1-isopropyl-4-oxo-1,4-dihydropyridine-3-carboxamide]
23 nM	41 nM	46.5 nM	44.7 nM	59.1 nM	COc1ccc(-c2cn(C(C)C)cc(C(=O)Nc3ccc(Oc4ccnc5cc(OC)c(OC)cc45)cn3)c2=O)c(F)c1 [Example 31, N-(5-((6,7-dimethoxyquinolin-4yl)oxy)pyridin-2-yl)-5-(2-fluoro-4-methoxyphenyl)-1-isopropyl-4-oxo-1,4-dihydropyridine-3-carboxamide]
6 nM	5.2 nM	5.1 nM	3.8 nM	58.1 nM	COc1cc(-c2cn(C(C)C)cc(C(=O)Nc3ccc(Oc4ccnc5cc(OC)c(OC)cc45)cn3)c2=O)ccc1F [Example 20, N-(5-((6,7-dimethoxyquinolin-4yl)oxy)pyridin-2-yl)-5-(4-fluoro-3-methoxyphenyl)-1-isopropyl-4-oxo-1,4-dihydropyridine-3-carboxamide]
255 nM	297 nM	346 nM	305 nM	–	COc1cc2ncc(C#N)c(Oc3ccc(NC(=O)c4cn(C(C)C)cc(-c5ccc(F)cc5)c4=O)nc3)c2cc1OC [Example 57, N-(5-((3-cyano-6,7-dimethoxyquinolin-4-yl)oxy)pyridin-2-yl)-5-(4-fluorophenyl)-1-isopropyl-4-oxo-1,4-dihydropyridine-3-carboxamide]
141 nM	117 nM	105 nM	108 nM	2220 nM	COc1ccc2nccc(Oc3ccc(NC(=O)c4cn(C)cc(-c5ccc(F)cc5)c4=O)nc3)c2c1 [Example 41, 5-(4-fluorophenyl)-N-(5-((6-methoxyquinolin-4yl)oxy)pyridin-2-yl)-1-methyl-4-oxo-1,4-dihydropyridine-3-carboxamide]
292 nM	33.8 nM	24.4 nM	29.5 nM	61.4 nM	COc1cc2nccc(Oc3ccc(NC(=O)c4cn(CC(=O)N5CCOCC5)cc(-c5ccc(F)cc5F)c4=O)nc3)c2cc1OC [Example 15, 5-(2,4-difluorophenyl)-N-(5-((6,7-dimethoxyquinolin-4-yl)oxy)pyridin-2-yl)-1-(2-morpholino-2-oxoethyl)-4-oxo-1,4-dihydropyridine-3-carboxamide]
15 nM	4.1 nM	4.9 nM	3.9 nM	29.1 nM	COc1cc2nccc(Oc3ccc(NC(=O)c4cn(CC5CCOCC5)cc(-c5ccc(F)cc5)c4=O)nc3)c2cc1OC [Example 8, N-(5-((6,7-dimethoxyquinolin-4-yl)oxy)pyridin-2-yl)-5-(4-fluorophenyl)-4-oxo-1-((tetrahydro-2H-pyran-4-yl)methyl)-1,4-dihydropyridine-3-carboxamide]
20 nM	39.7 nM	59.1 nM	50.3 nM	39.9 nM	COc1ccc(-c2cn(C(C)C)cc(C(=O)Nc3ccc(Oc4ccnc5cc(OC)c(OC)cc45)cn3)c2=O)cc1 [Example 30, N-(5-((6,7-dimethoxyquinolin-4yl)oxy)pyridin-2-yl)-1-isopropyl-5-(4-methoxyphenyl)-4-oxo-1,4-dihydropyridine-3-carboxamide]
15 nM	6 nM	6.4 nM	5.2 nM	–	COc1cc2nccc(Oc3ccc(NC(=O)c4c[nH]cc(-c5ccc(F)cc5)c4=O)nc3)c2cc1OC [Example 26, N-(5-((6,7-dimethoxyquinolin-4yl)oxy)pyridin-2-yl)-5-(4-fluorophenyl)-4-oxo-1,4-dihydropyridine-3-carboxamide]
18 nM	–	–	–	–	COc1cc2nccc(Oc3ccc(NC(=O)c4cn(C(C)C)c(C(C)C)c(-c5ccc(F)cc5)c4=O)nc3)c2cc1OC [Example 38, N-(5-((6,7-dimethoxyquinolin-4yl)oxy)pyridin-2-yl)-5-(4-fluorophenyl)-1,6-diisopropyl-4-oxo-1,4-dihydropyridine-3-carboxamide]
